# Experimental data from patent US9206196B1, “Derivatives of benzoxazino quinoline, benzoxazino isoquinoline and processes for their preparation” (Council of Scientific & Industrial Research, priority 2014, dated 2015).
# Tested on: Plasmodium falciparum (3D7)
# Test: Anti-malarial screen, parasite growth by SybrGreen staining
# Assay type: cell-based
# Details: dose response assay, test molecules from 10 μM to 1 nM, 60 hours incubation, SybrGreen read out
# Protocol: Plasmodium falciparum (3D7; Malaria Research and Reference Reagent Resource Center ID NO: MRA-102) is cultured in the laboratory as per standard protocols. Briefly, P. falciparum is cultured using 2% hematocrit washed RBCs, separated from freshly collected human blood, in Roswell Park Memorial Institute (RPMI) medium containing glutamine, sodium bicarbonate and antibiotics. Parasites are synchronized using either 5% sorbitol treatment or by enriching late stage parasites using a 70% percol cushion. 200 μls of the diluted parasite culture at 2% parasitemia and 2% hematocrit, is added to each well in a 96 well plate pre-seeded with the compound of interest at the required concentration. In general, compounds being screened for the first time are tested at a single concentration of 10 μM to detect any effect they may have on parasite growth. The master stocks and dilutions of the compounds are prepared in cell culture grade DMSO. NOTE: DMSO only treatment control is done and the results are used for normalizing the data obtained from compound treatment. All compounds are plated in triplicates. Each 96 well plate also includes negative control (compound untreated culture) and positive control (standard anti-malarial treated culture). Standard anti-malarials used are chloroquine, artemisinine and atovaquone, each at 1 μM concentration. After plating, the culture is incubated in standard growth condition for 60 hours, after which the cultures are processed for testing the effect of compounds on parasite growth as given below. We have standardized a modified SybrGreen dye based staining protocol (Plouffe D et. al. in Proc Natl Acad Sci, 2008, 105(26), 9059-64) for estimating parasite growth. SybrGreen dye binds to DNA and only the DNA bound dye gives a specific fluorescence emission ([…]) when excited ([…]). Since only the parasites have DNA (as RBCs are devoid of nucleus), the SybrGreen signal is a direct indictor of parasite growth. We have standardized a plate reader based read out assay for quantifying relative parasite growth (or conversely % inhibition of growth) in untreated, standard anti-malarial treated and test molecules treated P. falciparum cultures. 25 μl of 10× staining solution (0.5% Triton X100 & 10× SybrGreen dye in phosphate buffered saline) is added to each sample in 96 well plate, mixed and incubated for 30 min before taking readings. Data obtained is then tabulated to compare parasite growth between untreated, standard anti-malarial treated and compound treated parasite cultures. Compounds showing greater than 80% reduction in parasite growth are selected from this primary screening for carrying out dose response analysis using the respective test molecules from 10 μM to 1 nM. Data from this experiment is used for the calculation of IC50 values for the respective test molecules. Data from the preliminary screen (at 10 μM only) is shown in FIG. 1 and data from the dose response experiment is shown in FIG. 2.
row,SMILES,IC50
1,CC1=C[C@@H]2O[C@H](c3ccc(Cl)cc3)c3ccccc3N2c2ccccc21,3.8 µM
2,O=C1C=CC2(C=C1)OC1C=Cc3ccccc3N1c1ccccc12 (stereo not drawn),1.69 µM
3,"O=C1C(O)=C([C@H]2CC[C@H](c3ccc(Cl)cc3)CC2)C(=O)c2ccccc21 [Atovaquone, reference compound]",0.00711 µM
4,Cc1cc2c(cc1C)N1c3ccccc3C=C[C@@H]1O[C@@H]2c1ccc(Cl)cc1,3.51 µM

# The remaining compounds from weak to strong by IC50, led by results:
row,IC50,SMILES
1,3.87 µM,C1=CC2OC(c3ccccc3)(c3ccccc3)c3ccccc3N2c2ccccc21 (stereo not drawn)
2,2.64 µM,O=C(c1ccccc1)C1(c2ccccc2)OC2C=Cc3ccccc3N2c2ccccc21 (stereo not drawn)
